Measurements as given in US5057512A, “3-amino-2-oxo-azetidine-1-sulfonic acids” (Uclaf; Roussel, priority 1981, dated 1991).

Assays:
Test in all cases: M.I.C., dilutions in liquid medium
Type in all cases: cell-based
[1] = system: Klebsiella Pneumoniae Exp. 52145; settings: 37° C.; for M.I.C.: 24 Hr.; for MIC: Klebsiella pneumoniae
Experimental: (§1) A. Activity in Vitro-Method of Dilutions in Liquid Medium
(§2) A series of tubes was prepared in which the same amount of sterile nutritive medium was distributed and there was distributed in each tube increasing amounts of the test product. Then, each tube was inoculated with a bacterial strain and after incubation for twenty-four or forty-eight hours in an oven at 37° C., the inhibition of the growth was evaluated by trans-illumination to determine the minimum inhibiting concentrations (M.I.C.), expressed in μg/ml.

[2] = system: Escherichia coli DC 0; settings: 37° C.; for MIC: Escherichia coli
Experimental: as §1, §2

[3] = system: Escherichia coli DC 2; settings: 37° C.; for MIC: Escherichia coli, DC2
Experimental: as §1, §2

[4] = system: Escherichia coli 1507 E; settings: 37° C.; for MIC: Escherichia coli, 1507E
Experimental: as §1, §2

[5] = system: Escherichia coli 0 78; settings: 37° C.
Experimental: as §1, §2

[6] = system: Escherichia coli T E M; settings: 37° C.; for MIC: Escherichia coli
Experimental: as §1, §2

[7] = system: Klebsiella aerogenes 1522 E; settings: 37° C.; for MIC: Klebsiella aerogenes, 1522E
Experimental: as §1, §2

[8] = system: Klebsiella aerogenes 1082 E; settings: 37° C.; for MIC: Klebsiella aerogenes, 1082E
Experimental: as §1, §2

[9] = system: Proteus vulgaris (indol +) A 232; settings: 37° C.; for MIC: Proteus vulgaris
Experimental: as §1, §2

[10] = system: Salmonella typhimurium MZ 11; settings: 37° C.; for MIC: Salmonella enterica, TYPHIMURIUM
Experimental: as §1, §2

[11] = system: Enterobacter cloacae 1321 E; settings: 37° C.; for MIC: Enterobacter cloacae, 1321E
Experimental: as §1, §2

[12] = system: Escherichia coli UC 1894; settings: 37° C.; for MIC: Escherichia coli, UC1894
Experimental: as §1, §2

[13] = system: Proteus mirabilis (indol -) A 235; settings: 37° C.; for MIC: Proteus mirabilis
Experimental: as §1, §2

[14] = system: Providencia Du 48; settings: 37° C.; for MIC: Providencia, DU48
Experimental: as §1, §2

[15] = system: Pseudomonas aeruginosa 1771 m; settings: 37° C.; for MIC: Pseudomonas aeruginosa, 1771M
Experimental: as §1, §2

[16] = system: Serratia Resistant to Gentamycine 2 532; settings: 37° C.; for M.I.C.: 24 Hr.; for MIC: Serratia
Experimental: as §1, §2

[17] = Escherichia coli, 078, 24 h, 24 H
[18] = Escherichia coli, 078, 48 h, 48 H

| Compound | MIC ([1]; 48 h) [µg/mL] | MIC ([2]; DC0, 24 h, 24 H) [µg/mL] | MIC ([2]; DC0, 48 h, 48 H) [µg/mL] | MIC ([3]; 24 H) [µg/mL] | MIC ([3]; 48 H) [µg/mL] | MIC ([4]; 24 h) [µg/mL] | MIC ([4]; 48 h) [µg/mL] | MIC [5, 17] [µg/mL] | MIC [5, 18] [µg/mL] | MIC ([6]; 24 h) [µg/mL] | MIC ([6]; 48 h) [µg/mL] | MIC ([7]; 24 h) [µg/mL] | MIC ([7]; 48 h) [µg/mL] | MIC ([9]; 24 Hr.) [µg/mL] | MIC ([9]; 48 Hr.) [µg/mL] | MIC ([10]; 24 h) [µg/mL] | MIC ([10]; 48 h) [µg/mL] | MIC ([11]; 24 H) [µg/mL] | MIC ([11]; 48 H) [µg/mL] | MIC ([12]; 24 H) [µg/mL] | also measured |
| --- | --- | --- | --- | --- | --- | --- | --- | --- | --- | --- | --- | --- | --- | --- | --- | --- | --- | --- | --- | --- | --- |
| CON=C(C(=O)NC1C(=O)N(S(=O)(=O)O)C1CF)c1csc(N)n1 (mixture of isomers) [Example 5, Racemate of syn isomer of cis 4-fluoromethyl-3-[2-(2-amino-4-thiazolyl)-2-methoxyimino-acetamido]-2-oxo-azetidine-1-sulfonic acid] | 0.3 | 0.3 | 0.3 | 0.15 | 0.3 | 0.15 | 0.15 | 0.15 | 0.15 | 0.15 | 0.15 | 0.15 | 0.15 | ≤ 0.04 | ≤ 0.04 | 0.08 | 0.08 | 0.08 | 0.08 | ≤ 0.04 | M.I.C. [1]: 0.3 µg/mL; MIC ([8]; 24 h): 5 µg/mL; MIC ([8]; 48 h): 5 µg/mL; MIC ([12]; 48 H): ≤ 0.04 µg/mL; MIC ([13]; 24 h): 0.08 µg/mL; MIC ([13]; 48 h): 0.08 µg/mL; MIC ([14]; 24 Hr.): 0.3 µg/mL; MIC ([14]; 48 Hr.): 0.3 µg/mL; MIC ([15]; 24 H): 0.6 µg/mL; MIC ([15]; 48 H): 1.2 µg/mL; M.I.C. [16]: 0.06 µg/mL; MIC ([16]; 48 h): 1.2 µg/mL |
| CC(C)(ON=C(C(=O)NC1C(=O)N(S(=O)(=O)O)C1CF)c1csc(N)n1)C(=O)O (mixture of isomers) [Example 6, Racemate of syn isomer of cis 4-fluoromethyl-3-[2-(2-amino-4-thiazolyl)-2-(1-carboxy-1-methyl-ethoxy)-imino-acetamido]-2-oxo-azetidine-1-sulfonic acid] | 0.6 | 0.6 | 0.6 | 0.3 | 0.3 | 0.6 | 0.6 | 0.3 | 0.3 | 0.6 | 0.6 | 0.3 | 0.3 | ≤ 0.04 | ≤ 0.04 | 0.6 | 0.6 | 0.3 | 0.3 | 0.08 | MIC ([1]; 24 h): 0.6 µg/mL; MIC ([8]; 24 h): 0.6 µg/mL; MIC ([8]; 48 h): 0.6 µg/mL; MIC ([12]; 48 H): 0.08 µg/mL; MIC ([13]; 24 h): ≤ 0.04 µg/mL; MIC ([13]; 48 h): ≤ 0.04 µg/mL; MIC ([14]; 24 Hr.): 0.15 µg/mL; MIC ([14]; 48 Hr.): 0.15 µg/mL; MIC ([15]; 24 H): 0.3 µg/mL; MIC ([15]; 48 H): 0.6 µg/mL; MIC ([16]; 24 h): 0.3 µg/mL; MIC ([16]; 48 h): 0.3 µg/mL |
| Nc1nc(C(=NOC(F)F)C(=O)NC2C(=O)N(S(=O)(=O)O)C2CF)cs1 (mixture of isomers) [Example 8, Racemate of the syn isomer of cis 4-fluoromethyl-3-[2-(2-amino-4-thiazolyl)-2-difluoromethoxyimino-acetamido]-2-oxo-azetidine-1-sulfonic acid] | 0.3 | 0.08 | 0.08 | ≤ 0.04 | ≤ 0.04 | ≤ 0.04 | ≤ 0.04 | 0.08 | 0.08 | 0.15 | 0.15 | 0.08 | 0.08 | ≤ 0.04 | ≤ 0.04 | 0.08 | 0.08 | 0.08 | 0.08 | ≤ 0.04 | MIC ([1]; 24 h): 0.3 µg/mL; MIC ([12]; 48 H): ≤ 0.08 µg/mL; MIC ([13]; 24 h): ≤ 0.04 µg/mL; MIC ([13]; 48 h): ≤ 0.04 µg/mL; MIC ([14]; 24 Hr.): 0.3 µg/mL; MIC ([14]; 48 Hr.): 0.3 µg/mL; MIC ([16]; 24 h): 0.6 µg/mL; MIC ([16]; 48 h): 0.6 µg/mL |
| CON=C(C(=O)NC1C(=O)N(S(=O)(=O)O)C1CF)c1csc(N)n1 [Example 11, (3S,4S)ΔZ 4-fluoromethyl-3-[2-(2-amino-4-thiazolyl)-2-methoxyimino-acetamido]-2-oxo-azetidine-1-sulfonic acid] | – | – | – | – | – | – | – | – | – | – | – | – | – | – | – | – | – | – | – | – | M.I.C. [1]: 0.08 µg/mL; M.I.C. ([2]; 24 H): 0.15 µg/mL; M.I.C. ([3]; 24 H): 0.15 µg/mL; M.I.C. ([4]; 24 H): 0.08 µg/mL; M.I.C. ([5]; 24 H): 0.08 µg/mL; M.I.C. ([6]; 24 H): 0.08 µg/mL; M.I.C. ([7]; 24 H): 0.08 µg/mL; M.I.C. ([8]; 24 H): 10 µg/mL; M.I.C. ([9]; 24 Hr.): ≤ 0.04 µg/mL; M.I.C. ([10]; 24 H): ≤ 0.04 µg/mL; M.I.C. ([11]; 24 H): 0.08 µg/mL; M.I.C. ([12]; 24 H): ≤ 0.04 µg/mL; M.I.C. ([13]; 24 Hr.): 0.15 µg/mL; M.I.C. ([14]; 24 Hr.): 0.3 µg/mL; M.I.C. ([15]; 24 H): 0.6 µg/mL; M.I.C. [16]: 2.5 µg/mL |
